The results in this text go back to patent publication US6548540B2, “Method of treating cancer using dithiocarbamate derivatives” (Charlotte-Mecklenburg Hospital Authority, priority 1998, dated 2003).

Test [1] deals with Prostate carcinoma CRL 1435 (PC-3). Kind of test: MTT proliferation assay, prostate carcinoma PC-3. It counts as cell-based. Conditions: Homo sapiens, treatment initially, after 48 hours, 10% FBS, read-out: Mean Percent Inhibition of Growth. Here is the method:
Human malignant cell lines were obtained from American Type Tissue Culture Collection (Rockville, Md.). Melanoma cells lines CRL 1585 and 1619 were cultured in RPMI 1640 (GIBCO-BRL, Life Technologies, Grand Island, N.Y.) with 10% FBS and passed with nonenzymatic Cell Dissociation Solution® (Sigma). The prostate adenocarcinoma cell line CRL 1435 (PC-3) was also cultured in RPMI 1640 with 10% FBS but passed with 0.05% trypsin and 0.53 mM EDTA. The squamous lung carcinoma NCI-H520 and the adenosquamous lung carcinoma NCI-H596 cell lines were grown in RPMI 1640 supplemented with 10% FBS, 10 mM HEPES and 1.0 mM sodium pyruvate and passed with trypsin/EDTA. The small cell lung carcinoma NCI-H82 was cultured as a suspension in RPMI 1640 with 10% FBS. All of the above were grown in a 37° C. humidified environment containing 5% CO2/air. The breast carcinoma cell line MDA-MB-453 was grown in a 37° C. humidified environment with free gas exchange with atmospheric air using Leibovitz's L-15 medium with 2 mM L-glutamine and 10% FBS and was passed with trypsin/EDTA.
The effect of disulfiram (0.15 to 5.0 μM), diethyldithiocarbamate (DDC, 1.0 μM) or PDTC (0.625 to 5.0 μM) on proliferation of malignant cell lines was studied in cultures stimulated with 10% FBS. Cell numbers were quantitated 24-72 hours later. In some experiments disulfiram or PDTC were added immediately after cells were plated. In other experiments, cells were plated and allowed to grow for 24-72 hours before fresh media with disulfiram or PDTC was added, and cell numbers were assayed 24-72 hours later. […]
Proliferation of cultured cells was quantitated using a previously reported calorimetric method based upon metabolic reduction of the soluble yellow tetrazolium dye 3-[4,5-dimethylthiazol]-2yl-2,5-diphenyl tetrazolium bromide (MTT) to its insoluble purple formazan by the action of mitochondrial succinyl dehydrogenase (See, e.g., S. J. Hirst, et al., “Quantifying proliferation of cultured human and rabbit airway smooth muscle in response to serum and platelet derived growth factor,” Am. J. Respir. Cell Mol. Biol. 7:574-581 (1992); R. Dashtaki, et al. R., supra; S. S. Brar, et al., “Requirement for reactive oxygen species in serum-induced and platelet-derived growth factor-induced growth of airway smooth muscle,” J. Biol. Chem. 274:20017-20026 (1999)). […] MTT-containing medium was removed, 0.5 ml dimethylsulfoxide (DMSO) was added to each well, and the absorbance of the solubilized purple formazan dye was measured at 540 nm. […]
(Tetrazolium dyes change colour on reduction, which living cells bring about.)

The subject of test [2] is H82 small cell lung cancer cells. Description: Trypan blue cytotoxicity, H82. Format: cell-based, human. Conditions: 0.625 μM disulfiram; 36 hours. Here is the method:
(§1) To assess for cytotoxicity, cells were plated at a density of 50,000 per well on 24 well plates and grown for 24 hours. Disulfiram was then added. After an additional 36 hours, medium was removed and replaced with DPBS containing 0.1% trypan blue. Cell death was assessed by counting the average number of trypan blue positive cells per 10×field in 5 random fields for 4 separate wells.

Test [3] deals with H520 lung carcinoma cells. Description: Trypan blue cytotoxicity, H520. Format: cell-based, human. Conditions: 0.625 μM disulfiram; 36 hours. Here is the method: as §1
The subject of test [4] is bcl-2. Kind of test: Immunoblot for bcl-2. Format: cell-based, human. Conditions: cell lines studied; data not shown. Here is the method:
Cells were lysed and proteins were isolated and quantitated by immunoassay as previously detailed using 2 μg/ml of primary rabbit polyclonal antibodies against human bcl-2, p53, p21^WAF1/CiP1, cyclin A and cyclin B1, and peroxidase-labeled donkey polyclonal anti-rabbit IgG. Cells were placed on ice, washed twice with cold DPBS, scraped into 0.5 ml boiling buffer (10% [vol/vol] glycerol and 2% [wt/vol] sodium dodecyl sulfate [SDS] in 83 mM Tris, pH 6.8) and sheared by four passages through a pipette. Aliquots were removed for protein determination, using the BCA protein assay (Pierce). After 10% β-mercaptoethanol and 0.05% bromophenol blue were added, lysates were boiled for 5 min and stored at −80° C. until immunoblotting was performed. Proteins in defrosted samples were separated by SDS-polyacrylamide gel electrophoresis on 12% polyacrylamide gels (15 μg protein/lane) and electrotransferred to 0.45 μm Hybond ECL nitrocellulose membranes (Amersham Life Sciences) using the wet transblot method in transfer buffer (0.025 M Tris, 0.192 M glycine, 2.6 mM SDS, and 20%[vol/vol] methanol; pH 8.8) at 100 volts for 1 hour. […] Immunoblots were rinsed again as above and detected via an enhanced chemiluminescence method (ECL Western blotting detection system, Amersham Life Science, Buckinghamshire, England). […]
Background: A western blot detects proteins with antibodies after separation by electrophoresis.

Broadly, the inhibition is the drop in the measured response relative to a control, in per cent.

Consider `CCN(CC)C(=S)SSC(=S)N(CC)CC` [Disulfiram, tetraethylthiuram disulfide], for which the inhibition at 0.625 µM in test [1] (disulfiram 0.625 μM) is 6 ± 6%. In addition, the inhibition at 1.25 µM in test [1] (disulfiram 1.25 μM) came to 29 ± 5%. The inhibition at 2.5 µM in test [1] (disulfiram 2.5 μM) came to 48 ± 2%. For the same compound, the inhibition at 5 µM in test [1] (disulfiram 5.0 μM) stood at 86 ± 2%. The “trypan blue positive cells” value in test [2] is given as 93±12 trypan blue positive cells per well; in test [3], 94±18 trypan blue positive cells per well. The “expression of bcl-2” value in test [4] is “no consistent effect”.
